The values that follow are results of earlier work, collected in US12161629B2, “Methods and compositions for treatment of glaucoma and related conditions” (Opus Genetics, Inc., priority 2018, dated 2024).

Structures can show the parent of a compound that is named as a salt. Where two headings read alike, the source gives them in different places.

The subject of data set [1] is alpha-1 adrenergic receptor.

With `Cc1ccccc1N1CCN(CCc2nnc3n2CCCC3)CC1` [dapiprazole hydrochloride], the “effect on intraocular pressure” value in the data set with eyes of patients (in normotensive eyes or in eyes with elevated intraocular pressure) is recorded as “not significantly alter intraocular pressure”. As for `CCCC(=O)N1CCCN(c2nc(N)c3cc(OC)c(OC)cc3n2)CC1` [bunazosin], in data set [1], the “inhibitory activity, alpha-1 versus alpha-2 adrenergic receptor” value is reported as “greater inhibitory activity towards (i) the alpha-1 adrenergic receptor compared to the (ii) alpha-2 adrenergic receptor”. In addition, the “effect on intraocular pressure” value in the data set on eyes of patients (in patients, Hara et al., Cardiovascular Drug Reviews (2005)) is recorded as “decreased intraocular pressure in patients”.
